Like-named read-outs stand apart in the source and are kept apart here.
Legend:
astrocytes [1] = assay: DAPI staining, astrocyte cell number; assay type: cell-based, Wistar rat; conditions: for cell numbers (DAPI) vs control: n = 4, triplicates, Dunnett's
Experimental: Astrocytes were seeded in 96‐well plate (1 × 10^4 per well) and fixed in 4% paraformaldehyde for 5 min, washed in PBS three times for 5 min each time before and after incubating with 1 μg/mL DAPI for 10 min. Round and whole nuclei in nine fields of view per well were counted using ImageJ (NIH, Bethesda, MD).

astrocytes [2] = assay: Scratch wound assay (astrocyte migration); assay type: cell-based, Wistar rat; conditions: for wound closure: monitored 72 hr, n = 5, triplicates; for ability of astrocytes to close the wound: PDM, n = 6, triplicates
Experimental: A wound recovery assay was carried out to analyze the migration of astrocytes using the IncuCyte system (Essen BioScience Inc., Ann Arbor, MI). Primary astrocytes were seeded in ImageLock 96‐well plates (4,379, Essen BioScience) at a density of 4 × 10^4 per well. After 24 hr, standardized and reproducible (700–800 μm wide) scratch “wounds” were created in all wells using a dedicated device. Cultures were exposed to different testing conditions, for example, stressors, and were maintained and imaged at hourly intervals up to 72 hr.
Cell density was measured in the scratch area and compared to undisrupted adjacent monolayer. Relative wound density (%), a measure of wound recovery, was calculated using the formula: Relative wound density (%) = (Density of wound region at certain time point – Initial density of wound region)/(Density of intact cell region at certain time point − Initial density of wound) × 100%.

primary astrocytes = conditions: 5 hr, LDH 24 hr later, PDM
Experimental: Primary cultures of astrocytes were prepared from the cerebral cortices, cerebellum, and brainstem from Wistar rat pups (P2) following protocols described previously (1–3). Briefly, the brains of Wistar P2 pups were dissected out, crudely cross‐chopped and bathed in a solution containing HBSS, DNase I (0.04 mg/mL), trypsin from bovine pancreas (0.25 mg/mL) and BSA (3 mg/mL). The preparation was agitated at 37 °C for 15 min. Trypsinization of the brain tissue was terminated by the addition of equal volumes of culture media comprised of DMEM, 10% heat‐inactivated FBS, 100 U/mL penicillin, and 0.1 mg/mL streptomycin and then centrifuged at 2000 rpm, at room temperature (RT) for 10 min. The supernatant was aspirated, and the remaining pellet was resuspended in 15 mL HBSS containing BSA (3 mg/mL) and DNase I (0.04 mg/mL) and triturated gently. After the cell debris had settled, the cell suspension was filtered through a 40‐μm cell strainer (BD Falcon, BD Biosciences, Franklin Lakes, NJ) and cells were collected after centrifugation. Cells were seeded in a T75 flask containing culture media (see above) and maintained at 37 °C with 5% CO2. Once the cultures reached confluence and 1 week later, the flasks were mildly shaken overnight to remove microglia and oligodendrocytes. When astrocytes were seeded for experiments, media was changed to DMEM supplemented with 5% FBS instead of 10% FBS.
Lactate dehydrogenase (LDH) release from damaged cells was assessed colorimetrically with LDH Cytotoxicity Assay Kit (Pierce) according to the manufacturer's instructions. Activity is proportional to colorimetric reduction of tetrazolium salt measured at 490 nm. Cytotoxicity was normalized to maximal LDH activity as released from cells acutely exposed to Triton X‐100, and calculated using the formula: % Cytotoxicity = (Compound‐treated LDH activity – Spontaneous LDH activity)/(Maximum LDH activity – Spontaneous LDH activity) × 100%.
The media was then replaced by fresh PDM with or without TX14(A). Cells were incubated for a further 24 hr before carrying out the LDH reaction on 50 μL of media.

PSAP = assay: Immunodetection (Western blot) of PSAP in neuron-astrocyte co-culture media; assay type: cell-based, Wistar rat; conditions: H2O2 stress applied to neurons, Figure S9
GPR37L1/GPR37 = assay: Luminescence-based GloSensor cAMP assay in astrocytes; assay type: cell-based, Wistar rat; conditions: NKH477 1 μM, rat astrocytes
Experimental: The GloSensor assay uses genetically encoded biosensor variants with cAMP binding domains fused to mutant forms of Photinus pyralis luciferase. The luminescence of the reporter increases directly proportionally to the amount of cAMP present. Astrocytes were seeded in 96‐well plates and transduced with an AVV bearing the CMV‐driven GLO22F at multiplicity of infection (MOI) 10. After 24 hr transduction, media was exchanged for 100 μL HEPES‐buffered HBSS (pH 7.6). Cells were then incubated with 0.731 mM beetle luciferin for 2 hr in the dark. After baseline reading, NKH477 and/or TX14(A) were added to the wells and incubated for 20 min. Luminescence measurements were obtained using a Tecan microplate reader (Infinite M200 PRO).

[3] = target: GPR37L1 (rat, endogenous in astrocytes) (rat (endogenous in primary astrocytes)) (UniProt Q9QYC5)
[4] = target: GPR37 (rat, endogenous in astrocytes) (rat (endogenous in primary astrocytes)) (UniProt Q9QYC6)
receptor of ~54 kDa = conditions: ref Hiraiwa et al., 1997; cited from earlier work
neuroblastoma NS20 line [5] = tested on: neuroblastoma NS20 line; set-up: method as in O'Brien et al., 1994; conditions: ref O'Brien et al., 1994; cited from earlier work
neuroblastoma NS20 line [6] = target: neuroblastoma NS20 line; set-up: method as in O'Brien et al., 1994; conditions: radio-labeled Sap C, ref O'Brien et al., 1994, read-out: Kd of specific binding; cited from earlier work
gerbils = tested on: gerbils; set-up: method as in Sano et al., 1994; conditions: recombinant, chronic icv infusion, ref Sano et al., 1994; cited from earlier work

GPR37L1 (rat, endogenous in astrocytes) (rat (endogenous in primary astrocytes)), sequence (Q9QYC5 25-481): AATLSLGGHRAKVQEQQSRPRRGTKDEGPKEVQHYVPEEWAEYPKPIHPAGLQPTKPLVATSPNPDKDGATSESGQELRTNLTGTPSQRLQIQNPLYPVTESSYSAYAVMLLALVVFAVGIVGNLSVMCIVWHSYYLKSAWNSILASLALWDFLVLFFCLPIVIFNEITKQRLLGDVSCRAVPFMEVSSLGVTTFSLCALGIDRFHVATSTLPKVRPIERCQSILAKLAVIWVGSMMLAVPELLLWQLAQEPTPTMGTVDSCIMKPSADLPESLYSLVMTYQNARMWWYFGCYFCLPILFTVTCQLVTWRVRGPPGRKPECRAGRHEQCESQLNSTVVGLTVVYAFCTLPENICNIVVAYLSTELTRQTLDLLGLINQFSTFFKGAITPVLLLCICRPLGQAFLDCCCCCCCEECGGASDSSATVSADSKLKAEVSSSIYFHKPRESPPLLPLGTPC
GPR37 (rat, endogenous in astrocytes) (rat (endogenous in primary astrocytes)), sequence (Q9QYC6 27-603): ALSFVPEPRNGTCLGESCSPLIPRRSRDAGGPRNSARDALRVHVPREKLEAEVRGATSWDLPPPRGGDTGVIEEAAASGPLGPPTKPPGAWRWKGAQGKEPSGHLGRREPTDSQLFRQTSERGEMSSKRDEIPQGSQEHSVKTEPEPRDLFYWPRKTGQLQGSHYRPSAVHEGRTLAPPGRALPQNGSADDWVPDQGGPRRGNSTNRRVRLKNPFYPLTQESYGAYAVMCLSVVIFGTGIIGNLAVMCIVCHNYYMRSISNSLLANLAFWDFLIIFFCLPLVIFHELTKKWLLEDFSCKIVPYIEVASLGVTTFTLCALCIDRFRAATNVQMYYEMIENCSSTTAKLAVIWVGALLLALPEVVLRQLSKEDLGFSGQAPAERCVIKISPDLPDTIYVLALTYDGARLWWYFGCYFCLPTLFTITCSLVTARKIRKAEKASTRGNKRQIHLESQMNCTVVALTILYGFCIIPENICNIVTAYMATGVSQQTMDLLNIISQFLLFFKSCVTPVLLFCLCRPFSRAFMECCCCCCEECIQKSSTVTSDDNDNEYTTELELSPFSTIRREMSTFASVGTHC

O=C(Nc1ncnc2c1ncn2[C@@H]1O[C@@H]2COP(=O)(O)O[C@H]2[C@H]1O)c1ccccc1 [6‐BenZ‐cAMP]
cell numbers (DAPI) vs control (astrocytes [1]; 6-BenZ-cAMP 500 μM): significantly decreased cell numbers as compared to control
wound closure (astrocytes [2]; 6-benz-cAMP 250–1,000 μM, concentration-dependent): greatly slowed down wound closure

CO[C@@H]1[C@@H]2OP(=O)(O)OC[C@H]2O[C@H]1n1c(Sc2ccc(Cl)cc2)nc2c(N)ncnc21 [8‐pCPT‐2′‐O‐Me‐cAMP]
cell numbers (DAPI) vs control (astrocytes [1]; 8-pCPT-2′-O-Me-cAMP 1,000 μM): significantly decreased cell numbers as compared to control
wound closure (astrocytes [2]; 8-pCPT-2′-O-Me-cAMP 250–1,000 μM): had no effect

OO [H2O2]
cytotoxicity (LDH release) (primary astrocytes; H2O2 250 μM): comparable degree of cytotoxicity
ability of astrocytes to close the wound (astrocytes [2]; H2O2, 5 hr pre-exposure, 48 hr): drastically inhibited their ability to close the wound
PSAP in co-culture media (PSAP): increase in PSAP in co‐culture media in response to H2O2 stress

C=C[C@@]1(C)CC(=O)[C@]2(O)[C@@]3(C)[C@@H](O)CCC(C)(C)[C@@H]3[C@H](OC(=O)CCN(C)C)[C@H](OC(C)=O)[C@@]2(C)O1.Cl [NKH477]
cell numbers (DAPI) vs control (astrocytes [1]; NKH477 10 μM): significantly decreased cell numbers as compared to control
increase of baseline cAMP levels (GPR37L1/GPR37): ~ 20 fold

C=C(C)[C@H]1Cc2c(ccc3c2O[C@@H]2COc4cc(OC)c(OC)cc4[C@@H]2C3=O)O1 [rotenone]
cytotoxicity (LDH release) (primary astrocytes; rotenone 100 μM): comparable degree of cytotoxicity

CN[C@@H]1C[C@H]2O[C@@](C)([C@@H]1OC)n1c3ccccc3c3c4c(c5c6ccccc6n2c5c31)C(=O)NC4 [staurosporine]
cytotoxicity (LDH release) (primary astrocytes; staurosporine 200 nM): comparable degree of cytotoxicity
ability of astrocytes to close the wound (astrocytes [2]; staurosporine, 5 hr pre-exposure, 48 hr): drastically inhibited their ability to close the wound

prosaptide TX14(A) (peptide)
inhibition of NKH477 (1 μM)-raised cAMP in rat astrocytes, GloSensor luminescence, concentration-response of TX14(A); obliterated by combined knock-down of GPR37L1 and GPR37 [3]: 17.8 nM
percent inhibition of NKH477-mediated cAMP production in rat astrocytes at the maximal concentration of TX14(A) used (200 nM), GloSensor [3]: 40%
inhibition of NKH477 (1 μM)-raised cAMP in rat astrocytes, GloSensor luminescence, concentration-response of TX14(A); obliterated by combined knock-down of GPR37L1 and GPR37 [4]: 17.8 nM
percent inhibition of NKH477-mediated cAMP production in rat astrocytes at the maximal concentration of TX14(A) used (200 nM), GloSensor [4]: 40%

B1: Sap C: Saposin C, fragment of prosaposin (protein, UniProt P07602 311-390, looked up)
Saposin-C: SDVYCEVCEFLVKEVTKLIDNNKTEKEILDAFDKMCSKLPKSLSEECQEVVDTYGSSILSILLEEVSPELVCSMLHLCSG
modifications: Saposin-C
notes: Saposin C, fragment of prosaposin
interaction with receptor (molecular mass) (receptor of ~54 kDa): interacts with a receptor of ~54 kDa
neurotrophic activity (neuroblastoma NS20 line [5]): identified as neurotrophic factors
Kd (neuroblastoma NS20 line [6]): 0.019 nM

B2: PSAP: prosaposin, neurotrophic factor, precursor of Saposin C (protein)
chain: SPVLGLRECTRGSAVWCQNVKTAADCGAVQHCLQTVWSKPTVKSLPCDICKDVITAAGNLLKDNATEQEILMYLERTCDWLPKPNMSASCKEIVDSYLPVILDMIKGQMSHPGEVCSALNLCESLQKHLAELNHQKQLESNQIPELDMAEVVAPFMANIPFLLYPQDGSHSKPQPKKANGNVCQDCIQLVTDVQEALRTNSTFVEALVDHAKEECDRLGPGMSDMCKNYINQYSEVAIQMVMHMQPKEICVLAGFCDEVKEMPMKTLVPAEVVSENVIPALGLVEPIKKDPAPAKADIYCEVCEFVVKEVAKLIDNNRTEEEILHALDKVCSKLPTSLAEQCQEVVDTYGSSILSILLDEASPELVCSMLHLCSSRGLPAATVRVMPRKDGGFCEVCKKLVGYLDRNLEKNSTKEQILAALEKGCSFLPDQYRKQCDQFVTEYEPVLIEILVEVMDPSFVCLKIGACPAAHKPLLGAEKCVWGPSYWCQNMESAALCNAVEHCRRHVWN
number of cells in cultures (DAPI) (astrocytes [1]; TX14(A) 100 nM in PDM, or PSAP depletion, n = 15): neither depletion of PSAP nor addition of TX14(A) affected the number of cells in cultures
neurotrophic activity (neuroblastoma NS20 line [5]): identified as neurotrophic factors
wound closure after PSAP depletion (astrocytes [2]; PSAP depleted by immunoadsorption vs FBS-containing media, 48 hr): drastically slowed down by PSAP depletion
ischemia-induced learning deficits and neuronal loss (gerbils): almost completely prevented ischemia‐induced learning deficits and neuronal loss

From publication PMC6492175, “Glio‐ and neuro‐protection by prosaposin is mediated by orphan G‐protein coupled receptors GPR37L1 and GPR37” (Glia, 2018)
